In patent US20100016401A1, “3-AZA-BICYCLO[3.1.0]HEXANE DERIVATIVES” (Actelion Phamaceuticals Ltd., priority 2006, published 2010):

How the values were obtained:
human orexin-2 receptor = biological target: T1, human orexin-2 receptor (Homo sapiens, UniProt O43614); experiment: Intracellular calcium measurements (FLIPR), orexin receptor antagonistic activity, OX2; format: cell-based; settings: CHO cells expressing human orexin-2 receptor, 10 nM orexin-A as agonist
T1 construct: expressed in transfected cells; host or cells: CHO (Chinese hamster ovary) cells, grown under G418 selection
T1 sequence (O43614 1-444): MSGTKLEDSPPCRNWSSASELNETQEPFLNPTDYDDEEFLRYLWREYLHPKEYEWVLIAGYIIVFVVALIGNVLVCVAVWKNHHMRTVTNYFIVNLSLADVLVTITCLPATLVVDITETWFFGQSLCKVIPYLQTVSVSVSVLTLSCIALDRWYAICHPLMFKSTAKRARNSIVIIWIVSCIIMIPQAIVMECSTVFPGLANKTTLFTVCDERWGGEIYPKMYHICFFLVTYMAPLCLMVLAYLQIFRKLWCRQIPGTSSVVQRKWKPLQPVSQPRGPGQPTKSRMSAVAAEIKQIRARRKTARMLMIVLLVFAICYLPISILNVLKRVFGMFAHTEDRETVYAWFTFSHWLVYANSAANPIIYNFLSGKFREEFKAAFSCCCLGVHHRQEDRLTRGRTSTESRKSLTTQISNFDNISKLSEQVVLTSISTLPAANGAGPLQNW
Description: (§1) The orexin receptor antagonistic activity of the compounds of formula (I) is determined in accordance with the following experimental method.
(§2) Intracellular Calcium Measurements:
(§3) Chinese hamster ovary (CHO) cells expressing the human orexin-1 receptor and the human orexin-2 receptor, respectively, are grown in culture medium (Ham F-12 with L-Glutamine) containing 300 μg/ml G418, 100 U/ml penicillin, 100 μg/ml streptomycin and 10% inactivated fetal calf serum (FCS). The cells are seeded at 80,000 cells/well into 96-well black clear bottom sterile plates (Costar) which have been precoated with 1% gelatine in Hanks' Balanced Salt Solution (HBSS). All reagents are from Gibco BRL. The seeded plates are incubated overnight at 37° C. in 5% CO2.
(§4) Human orexin-A as an agonist is prepared as 1 mM stock solution in MeOH: water (1:1), diluted in HBSS containing 0.1% bovine serum albumin (BSA) and 2 mM HEPES for use in the assay at a final concentration of 10 nM.
(§5) Antagonists are prepared as 10 mM stock solution in DMSO, then diluted in 96-well plates, first in DMSO, then in HBSS containing 0.1% bovine serum albumin (BSA) and 2 mM HEPES.
(§6) On the day of the assay, 100 μl of loading medium (HBSS containing 1% FCS, 2 mM HEPES, 5 mM probenecid (Sigma) and 3 μM of the fluorescent calcium indicator fluo-3 AM (1 mM stock solution in DMSO with 10% pluronic acid) (Molecular Probes) is added to each well.
(§7) The 96-well plates are incubated for 60 min at 37° C. in 5% CO2. The loading solution is then aspirated and cells are washed 3 times with 200 μl HBSS containing 2.5 mM probenecid, 0.1% BSA, 2 mM HEPES. 100 μl of that same buffer is left in each well.
(§8) Within the Fluorescent Imaging Plate Reader (FLIPR, Molecular Devices), antagonists are added to the plate in a volume of 50 μl, incubated for 20 min and finally 100 μl of agonist is added. Fluorescence is measured for each well at 1 second intervals, and the height of each fluorescence peak is compared to the height of the fluorescence peak induced by 10 nM orexin-A with buffer in place of antagonist.

human orexin-1 receptor = biological target: T2, human orexin-1 receptor (Homo sapiens, UniProt O43613); experiment: Intracellular calcium measurements (FLIPR), orexin receptor antagonistic activity, OX1; format: cell-based; settings: CHO cells expressing human orexin-1 receptor, 10 nM orexin-A as agonist
T2 construct: expressed in transfected cells; host or cells: CHO (Chinese hamster ovary) cells, grown under G418 selection
T2 sequence (O43613 1-425): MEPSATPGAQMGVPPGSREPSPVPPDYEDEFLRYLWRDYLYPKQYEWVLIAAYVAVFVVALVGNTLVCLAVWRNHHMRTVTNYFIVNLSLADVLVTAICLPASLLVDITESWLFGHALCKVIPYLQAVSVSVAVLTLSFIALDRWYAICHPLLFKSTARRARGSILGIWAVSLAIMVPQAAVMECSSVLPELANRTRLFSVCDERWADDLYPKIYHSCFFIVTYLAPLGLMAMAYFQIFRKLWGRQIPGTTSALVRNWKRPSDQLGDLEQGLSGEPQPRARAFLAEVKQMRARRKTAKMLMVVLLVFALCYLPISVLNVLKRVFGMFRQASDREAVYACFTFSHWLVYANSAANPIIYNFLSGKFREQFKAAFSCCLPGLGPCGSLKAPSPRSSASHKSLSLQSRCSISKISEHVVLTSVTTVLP
Description: as §1, §2, §3, §4, §5, §6, §7, §8

Row | SMILES | IC50 (human orexin-2 receptor) [µM] | IC50 (human orexin-1 receptor) [µM]
1 | Cc1nc(C(=O)N2C[C@H]3C[C@H]3[C@H]2CNC(=O)c2ccc(F)cc2)c(-c2cccc(F)c2)s1 (relative stereo) [Example 8, 4-fluoro-N-{[(1R*,2S*,5S*)-3-[5-(3-fluoro-phenyl)-2-methyl-thiazole-4-carbonyl]-3-aza-bicyclo[3.1.0]hex-2-ylmethyl}-benzamide] | 0.096 | 0.994
2 | CCc1ccc(-c2sc(C)nc2C(=O)N2C[C@H]3C[C@H]3[C@H]2CNC(=O)c2cccc3occc23)cc1 (relative stereo) [Example 16, benzofuran-4-carboxylic acid {(1R*,2S*,5S*)-3-[5-(4-ethyl-phenyl}2-methyl-thiazole-4-carbonyl]-3-aza-bicyclo[3.1.0]hex-2-ylmethyl}-amide] | 0.033 | 0.143
3 | Cc1nc(C(=O)N2C[C@H]3C[C@H]3[C@H]2CNC(=O)c2cnc3ccccn23)c(-c2cccc(Cl)c2)s1 (relative stereo) [Example 203, Imidazo[1,2-a]pyridine-3-carboxylic acid {(1R*,2S*,5S*)-3-[5-(3-chloro-phenyl)-2-methyl-thiazole-4-carbonyl]-3-aza-bicyclo[3.1.0]hex-2-ylmethyl}-amide] | 0.092 | 0.042
4 | Cc1cccc(-c2sc(C)nc2C(=O)N2C[C@H]3C[C@H]3[C@H]2CNC(=O)c2cccc(C)c2Cl)c1 (relative stereo) [Example 143, 2-Chloro-3-methyl-N-[(1R*,2S*,5S*)-3-(2-methyl-5-m-tolyl-thiazole-4-carbonyl)-3-aza-bicyclo[3.1.0]hex-2-ylmethyl]-benzamide] | 0.017 | 0.507
5 | Cc1cccc(-c2sc(C)nc2C(=O)N2C[C@H]3C[C@H]3[C@H]2CNC(=O)c2ccc(C)c(C(F)(F)F)c2)c1 (relative stereo) [Example 146, 4-Methyl-N-[(1R*,2S*,5S*)-3-(2-methyl-5-m-tolyl-thiazole-4-carbonyl)-3-aza-bicyclo[3.1.0]hex-2-ylmethyl]-3-trifluoromethyl-benzamide] | 0.055 | 0.054
6 | O=C(c1ccccc1-c1ccccc1)N1C[C@H]2C[C@H]2[C@H]1CNc1ncc(Br)cn1 (relative stereo) [Example 64, biphenyl-2-yl-{(1R*,2S*,5S*)-2-[(5-bromo-pyrimidin-2-ylamino)methyl]-3-aza-bicyclo[3.1.0]hex-3-yl}-methanone] | 0.242 | 0.162
7 | Cc1cccc(-c2sc(C)nc2C(=O)N2C[C@H]3C[C@H]3[C@H]2CNC(=O)c2cccc(C(F)(F)F)c2)c1 (relative stereo) [Example 125, N-[(1R*,2S*,5S*)-3-(2-Methyl-5-m-tolyl-thiazole-4-carbonyl)-3-aza-bicyclo[3.1.0]hex-2-ylmethyl]-3-trifluoromethyl-benzamide] | 0.102 | 0.098
8 | Cc1cccc(-c2sc(C)nc2C(=O)N2C[C@H]3C[C@H]3[C@H]2CNC(=O)c2ccc(F)cc2Cl)c1 (relative stereo) [Example 141, 2-Chloro-4-fluoro-N-[(1R*,2S*,5S*)-3-(2-methyl-5-m-tolyl-thiazole-4-carbonyl)-3-aza-bicyclo[3.1.0]hex-2-ylmethyl]-benzamide] | 0.014 | 0.076
9 | Cc1nc(C(=O)N2C[C@H]3C[C@H]3[C@H]2CNc2cnc3cc(F)c(F)cc3n2)c(-c2ccc(F)cc2)s1 (relative stereo) [Example 60, {(1R*,2S*,5S*)-2-[(6,7-difluoro-quinoxalin-2-ylamino)-methyl]-3-aza-bicyclo[3.1.0]hex-3-yl}-[5-(4-fluoro-phenyl)-2-methyl-thiazol-4-yl]-methanone] | 0.076 | 0.596
10 | Cc1cccc(-c2sc(N)nc2C(=O)N2C[C@H]3C[C@H]3[C@H]2CNC(=O)c2sc3nccn3c2C)c1 (relative stereo) [Example 274, 3-Methyl-imidazo[2,1-b]thiazole-2-carboxylic acid [(1R*,2S*,5S*)-3-(2-amino-5-m-tolyl-thiazole-4-carbonyl)-3-aza-bicyclo[3.1.0]hex-2-ylmethyl]-amide] | 0.087 | 0.031

Other lines, results leading:

Row | IC50 (human orexin-2 receptor) [µM] | IC50 (human orexin-1 receptor) [µM] | SMILES
11 | 0.014 | 0.111 | Cc1nc(C(=O)N2C[C@H]3C[C@H]3[C@H]2CNC(=O)c2cccc3c2OCCO3)c(-c2cccc(F)c2)s1 (relative stereo) [Example 256, 2,3-Dihydro-benzo[1,4]dioxine-5-carboxylic acid {(1R*,2S*,5S*)-3-[5-(3-fluoro-phenyl)-2-methyl-thiazole-4-carbonyl]-3-aza-bicyclo[3.1.0]hex-2-ylmethyl}-amide]
12 | 0.05 | 0.864 | Cc1cccc(-c2sc(C)nc2C(=O)N2C[C@H]3C[C@H]3[C@H]2CNC(=O)c2sc(C)nc2C)c1 (relative stereo) [Example 82, 2,4-dimethyl-thiazole-5-carboxylic acid [(1R*,2S*,5S*)-3-(2-methyl-5-m-tolyl-thiazole-4-carbonyl)-3-aza-bicyclo[3.1.0]hex-2-ylmethyl]-amide]
13 | 0.101 | 0.131 | Cc1cccc(-c2sc(C)nc2C(=O)N2C[C@H]3C[C@H]3[C@H]2CNC(=O)c2cccc3c2OC(C)(C)C3)c1 (relative stereo) [Example 108, 2,2-Dimethyl-2,3-dihydro-benzofuran-7-carboxylic acid [(1R*,2S*,5S*)-3-(2-methyl-5-m-tolyl-thiazole-4-carbonyl)-3-aza-bicyclo[3.1.0]hex-2-ylmethyl]-amide]
14 | 0.04 | 0.346 | Cc1ccc(C(=O)N2C[C@H]3C[C@H]3[C@H]2CNC(=O)c2cccc3c2OCC3)c(-c2cccc(F)c2)c1 [Compound 325]
15 | 0.348 | 0.158 | Cc1nc2sccn2c1C(=O)NC[C@@H]1[C@@H]2C[C@@H]2CN1S(=O)(=O)c1ccccc1OC(F)(F)F (relative stereo) [Example 3, 6-methyl-imidazo[2,1-b]thiazole-5-carboxylic acid [(1R*,2S*,5S*)-3-(2-trifluoromethoxy-benzenesulfonyl)-3-aza-bicyclo[3.1.0]hex-2-ylmethyl]-amide]
16 | 0.194 | 0.11 | Cc1ccc(C(=O)N2C[C@H]3C[C@H]3[C@H]2CNC(=O)c2cccc3c2OCCO3)c(-c2ccc3c(c2)OCCO3)c1 [Compound 350]
17 | 0.114 | 0.196 | Cc1ccc(C(=O)N2C[C@H]3C[C@H]3[C@H]2CNC(=O)c2c3c(cc4c2OCC4)OCC3)c(-c2cccc(F)c2)c1 (relative stereo) [Compound 318]
18 | 0.032 | 1.21 | Nc1nc(-c2ccccc2C(=O)N2C[C@H]3C[C@H]3[C@H]2CNC(=O)c2cccc3occc23)cs1 (relative stereo) [Example 30, benzofuran-4-carboxylic acid {(1R*,2S*,5S*)-3-[2-(2-amino-thiazol-4-yl)benzoyl]-3-aza-bicyclo[3.1.0]hex-2-ylmethyl}-amide]
19 | 0.091 | 2.96 | O=C(NC[C@@H]1[C@@H]2C[C@@H]2CN1C(=O)c1nccnc1-c1ccccc1)c1cccc2occc12 (relative stereo) [Example 32, benzofuran-4-carboxylic acid [(1R*,2S*,5S*)-3-(3-phenyl-pyrazine-2-carbonyl)-3-aza-bicyclo[3.1.0]hex-2-ylmethyl]-amide]
